Read-outs that look alike come from different tables or passages of the source.
What was measured:
[1] = system: human melanoma SKMEL-28 cells; assay: Anti-proliferation assay (Alamar Blue metabolism), SKMEL-28 cells; type: cell-based
Excerpt: (§1) The combination matrices were used immediately and discarded.

[2] = system: human pancreatic cancer PANC1 cells; assay: Anti-proliferation assay (Alamar Blue metabolism), PANC1 cells; type: cell-based; conditions: PANC1 cells
Excerpt: as §1

[3] = system: human prostate cancer DU145 cells; assay: Anti-proliferation assay (Alamar Blue metabolism), DU145 cells; type: cell-based; conditions: Homo sapiens, DU-145, DU145 cells
Excerpt: as §1

[4] = system: human colorectal carcinoma HCT116 cells; assay: Anti-proliferation assay (Alamar Blue metabolism), HCT116 cells;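 note: cells in 384-well plates exposed to compound combination matrices for 72 h, Alamar Blue fluorescence read (excitation 530 nm), inhibition calculated against mean of vehicle-only wells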
Method: Stock solutions (1000×) of each compound were prepared in DMSO and stored at −20° C. Master stock plates of 2-fold or 4-fold serial dilutions of individual compounds were prepared in 384-well plates. Combination matrices of test compounds were generated from these master stock plates by dilution into growth media described above. […] The combination matrices were used immediately and discarded.
The anti-proliferation assays were performed in 384-well plates. […] Cells were diluted in culture media such that 3,000 SKMEL-28 cells, or 1,500 cells for all the other cell lines, were delivered in 35 μl of media into each assay well. Assay plates were incubated for 16-24 hours 37° C.±0.5° C. with 5% CO2. After incubation, 4.5 μl of 10× stock solutions from the combination matrices were added to 40 μl of culture media. Assay plates were further incubated for 72 hours at 37° C.±0.5° C. with 5% CO2. […] Alamar Blue metabolism was quantified by the amount of fluorescence intensity 3.5-5.0 hours after addition. Quantification, using an LJL Analyst AD reader (LJL Biosystems), was taken in the middle of the well with high attenuation, a 100 msec read time, an excitation filter at 530 nm, and an emission filter at 575 nm. For some experiments, quantification was performed using a Wallac Victor^2 reader. Measurements were taken at the top of the well with stabilized energy lamp control; a 100 msec read time, an excitation filter at 530 nm, and an emission filter at 590 nm.

[5] = system: non-small cell lung carcinoma A549 cells; assay: Anti-proliferation assay (Alamar Blue metabolism), A549 cells; type: cell-based; conditions: A549 cells
Method: Inhibition of proliferation was measured by anti-proliferation assay as described below after incubation with the test compound(s) for 72 hours.
as §1
Cells were diluted in culture media such that 3,000 SKMEL-28 cells, or 1,500 cells for all the other cell lines, were delivered in 35 μl of media into each assay well. Assay plates were incubated for 16-24 hours 37° C.±0.5° C. with 5% CO2. […] Assay plates were further incubated for 72 hours at 37° C.±0.5° C. with 5% CO2. […] Alamar Blue metabolism was quantified by the amount of fluorescence intensity 3.5-5.0 hours after addition.
The percent inhibition (% I) for each well was calculated using the following formula: % I=[(avg. untreated wells−treated well)/(avg. untreated wells)]×100 The average untreated well value (avg. untreated wells) is the arithmetic mean of 40 wells from the same assay plate treated with vehicle alone.

[6] = Homo sapiens, HCT-116, read-out: Percent inhibition of Alamar Blue Metabolism, lovastatin […], econazole 0.0 μM
[7] = Homo sapiens, HCT-116, read-out: Percent inhibition of Alamar Blue Metabolism, tioconazole 0.0 μM, lovastatin […]
[8] = with addition of 7 μM itraconazole
[9] = Homo sapiens, HCT-116, read-out: Percent inhibition of Alamar Blue Metabolism, lovastatin 0.0 μM, econazole […]
[10] = Homo sapiens, HCT-116, read-out: Percent inhibition of Alamar Blue Metabolism, tioconazole […], lovastatin 0.0 μM

With `CC(C)n1c(/C=C/C(O)CC(O)CC(=O)O)c(-c2ccc(F)cc2)c2ccccc21` (stereo not shown) [Fluvastatin, fluvastatin] the inhibition at 3 µM ([1]; Homo sapiens, SK-MEL-28, SKMEL-28 cells, 3 μM fluvastatin + 7 μM itraconazole) was 59.5%, the inhibition at 49 µM ([1]; Homo sapiens, SK-MEL-28, SKMEL-28 cells, fluvastatin 49 μM alone, read-out: maximal inhibition) was 27.8% and the “reduction in the concentration of fluvastatin” value ([1]; SKMEL-28 cells, 3 μM with 7 μM itraconazole vs 49 μM alone) was 16 fold. The “Percent inhibition of Alamar Blue Metabolism in SKMEL-28 cells” value ([1]; Table 13: itraconazole 0.87 μM + fluvastatin at row conc. c1 (0-49 μM), 72 h) was 35.4%, the inhibition at 12 µM ([2]; Homo sapiens, PANC-1, 12 μM fluvastatin + 7 μM itraconazole) was 56.8% and the inhibition at 49 µM ([2]; Homo sapiens, PANC-1, fluvastatin 49 μM alone, read-out: maximal inhibition) was 59.9%. The inhibition at 12 µM ([3]; 12 μM fluvastatin + 14 μM itraconazole) was 40.3%, the inhibition at 12 µM ([3]; 12 μM fluvastatin, absence of itraconazole) was 15.5% and the inhibition at 49 µM ([3]; fluvastatin 49 μM alone, read-out: maximal inhibition) was 58.3%. The “reduction in the concentration of fluvastatin” value ([4]; HCT116 cells, […] with 7 μM itraconazole vs 49 μM alone) was 8 fold, the inhibition at […] ([4]; Homo sapiens, HCT-116, HCT116 cells, […] fluvastatin + 7 μM itraconazole) was 91.9% and the inhibition at 49 µM ([4]; Homo sapiens, HCT-116, read-out: maximal inhibition, HCT116 cells, fluvastatin 49 μM alone) was 93.1%.

`CC[C@H](C)C(=O)O[C@H]1C[C@@H](C)C=C2C=C[C@H](C)[C@H](CC[C@@H]3C[C@@H](O)CC(=O)O3)[C@H]21` [Lovastatin, lovastatin] was tested, and the “reduction in the concentration of lovastatin” value ([4]; HCT116 cells, 6 μM with […] itraconazole vs 48 μM alone) was 8 fold, the inhibition at 6 µM ([4]; Homo sapiens, HCT-116, HCT116 cells, 6.0 μM lovastatin + 9.0 μM tioconazole) was 70.1% and the inhibition at 6 µM ([4]; Homo sapiens, HCT-116, HCT116 cells, 6 μM lovastatin + […] itraconazole) was 83.4%. The inhibition at 18 µM ([4]; Homo sapiens, HCT-116, HCT116 cells, 18 μM lovastatin + […] econazole) was 84.5%, the inhibition at 0.3 µM ([4]; Homo sapiens, HCT-116, read-out: Percent inhibition of Alamar Blue Metabolism, lovastatin 0.3 μM, econazole 0.0 μM) was 10.5% and the inhibition at 0.6 µM ([4]; Homo sapiens, HCT-116, read-out: Percent inhibition of Alamar Blue Metabolism, lovastatin 0.6 μM, econazole 0.0 μM) was 5.4%. For the same compound, the inhibition at 9 µM ([4]; Homo sapiens, HCT-116, read-out: Percent inhibition of Alamar Blue Metabolism, lovastatin 9.0 μM, econazole 0.0 μM) was 27.3%, the inhibition at 18 µM [4, 6] was 41.3% and the inhibition at 36 µM [4, 6] was 95.6%. The inhibition at 0.2 µM ([4]; Homo sapiens, HCT-116, read-out: Percent inhibition of Alamar Blue Metabolism, tioconazole 0.0 μM, lovastatin 0.2 μM) was 9.8%, the inhibition at 0.4 µM ([4]; Homo sapiens, HCT-116, read-out: Percent inhibition of Alamar Blue Metabolism, tioconazole 0.0 μM, lovastatin 0.4 μM) was 23.1% and the inhibition at 0.8 µM ([4]; Homo sapiens, HCT-116, read-out: Percent inhibition of Alamar Blue Metabolism, tioconazole 0.0 μM, lovastatin 0.8 μM) was 12.3%. For the same compound, the inhibition at 3 µM ([4]; Homo sapiens, HCT-116, read-out: Percent inhibition of Alamar Blue Metabolism, tioconazole 0.0 μM, lovastatin 3.0 μM) was 29.9%, the inhibition at 6 µM ([4]; Homo sapiens, HCT-116, read-out: Percent inhibition of Alamar Blue Metabolism, tioconazole 0.0 μM, lovastatin 6.0 μM) was 46.1% and the inhibition at 12 µM [4, 7] was 50%. The inhibition at 24 µM [4, 7] was 61.9%, the inhibition at […] [4, 7] was 32.2% and the inhibition at 24 µM ([4]; Homo sapiens, HCT-116, read-out: maximal inhibition, HCT116 cells, lovastatin 24 μM alone (Example 22)) was 61.9%. For the same compound, the inhibition at 36 µM ([4]; Homo sapiens, HCT-116, read-out: maximal inhibition, HCT116 cells, lovastatin 36 μM alone (Example 20)) was 95.6%, the inhibition at 48 µM ([4]; Homo sapiens, HCT-116, read-out: maximal inhibition, HCT116 cells, lovastatin 48 μM alone (Example 14)) was 55% and the “Percent inhibition of Alamar Blue Metabolism in HCT116 cells” value ([4]; Table 14: itraconazole 14 μM + lovastatin at row conc. c1 (0-48 μM), 72 h) was 88.9%.

`CCC(C)(C)C(=O)O[C@H]1C[C@@H](C)C=C2C=C[C@H](C)[C@H](CC[C@@H]3C[C@@H](O)CC(=O)O3)[C@H]21` [Simvastatin, simvastatin] was tested, and the reduction in simvastatin ([1]; SKMEL-28 cells, 6 μM with 7 μM itraconazole vs 48 μM alone) was 8 fold, the “inhibition of cell proliferation” value ([1]; SKMEL-28 cells, 9 μM statin + 7 μM itraconazole) was 61.8% and the inhibition ([1]; SKMEL-28 cells, 9 μM statin, absence of itraconazole) was 24.0%. For the same compound, the “simvastatin concentration required for nearly maximal inhibition” value [2, 8] was 12 µM, the “reduction in the concentration of simvastatin” value ([5]; 12 μM with 7 μM itraconazole vs 48 μM alone) was 4 fold and the “simvastatin concentration required for nearly maximal inhibition” value [5, 8] was 12 µM. For the same compound, the inhibition at 12 µM ([4]; Homo sapiens, HCT-116, HCT116 cells, 12 μM simvastatin + 7 μM itraconazole) was 92.7%.

With `COCc1c(C(C)C)nc(C(C)C)c(/C=C/[C@@H](O)C[C@@H](O)CC(=O)O)c1-c1ccc(F)cc1` [cerivastatin] the “reduction in the concentration of cerivastatin” value ([4]; HCT116 cells, […] with […] itraconazole vs 22 μM alone) was 8 fold, the inhibition at 22 µM ([4]; Homo sapiens, HCT-116, read-out: Percent inhibition of Alamar Blue Metabolism, cerivastatin 22 μM, itraconazole 0 μM) was 85.5% and the inhibition at 22 µM ([4]; Homo sapiens, HCT-116, read-out: maximal inhibition, HCT116 cells, cerivastatin 22 μM alone) was 85.5%.

`Clc1ccccc1C(c1ccccc1)(c1ccccc1)n1ccnc1` [clotrimazole] gave an inhibition at 0.5 µM ([4]; Homo sapiens, HCT-116, read-out: Percent inhibition of Alamar Blue Metabolism, atorvastatin 0.0 μM, clotrimazole 0.5 μM) of 25.9% and an inhibition at 0.9 µM ([4]; Homo sapiens, HCT-116, read-out: Percent inhibition of Alamar Blue Metabolism, atorvastatin 0.0 μM, clotrimazole 0.9 μM) of 35.8%.

`Clc1ccc(COC(Cn2ccnc2)c2ccc(Cl)cc2Cl)cc1` (stereo not shown) [econazole] showed an inhibition at 0.4 µM ([4]; Homo sapiens, HCT-116, read-out: Percent inhibition of Alamar Blue Metabolism, atorvastatin 0.0 μM, econazole 0.4 μM) of 0.7%, an inhibition at 0.7 µM ([4]; Homo sapiens, HCT-116, read-out: Percent inhibition of Alamar Blue Metabolism, atorvastatin 0.0 μM, econazole 0.7 μM) of -1.7% and an inhibition at 2.8 µM ([4]; Homo sapiens, HCT-116, read-out: Percent inhibition of Alamar Blue Metabolism, atorvastatin 0.0 μM, econazole 2.8 μM) of 1.6%. For the same compound, the inhibition at 0.4 µM ([4]; Homo sapiens, HCT-116, read-out: Percent inhibition of Alamar Blue Metabolism, lovastatin 0.0 μM, econazole 0.4 μM) was 0.6%, the inhibition at 0.8 µM ([4]; Homo sapiens, HCT-116, read-out: Percent inhibition of Alamar Blue Metabolism, lovastatin 0.0 μM, econazole 0.8 μM) was 8.8% and the inhibition at 3 µM ([4]; Homo sapiens, HCT-116, read-out: Percent inhibition of Alamar Blue Metabolism, lovastatin 0.0 μM, econazole 3.0 μM) was 23.9%. The inhibition at 6 µM ([4]; Homo sapiens, HCT-116, read-out: Percent inhibition of Alamar Blue Metabolism, lovastatin 0.0 μM, econazole 6.0 μM) was 36.7%, the inhibition at 48 µM ([4]; Homo sapiens, HCT-116, read-out: Percent inhibition of Alamar Blue Metabolism, lovastatin 0.0 μM, econazole 48.0 μM) was 96.1% and the inhibition at 12 µM [4, 9] was 57.2%. It also gave an inhibition at 24 µM [4, 9] of 78.6%, an inhibition at […] [4, 9] of 14.9% and an inhibition at 36 µM ([4]; Homo sapiens, HCT-116, read-out: maximal inhibition, HCT116 cells, 36 μM alone (Example 18)) of 83.1%.

With `CC[C@H](C)C(=O)O[C@H]1C[C@@H](C)C=C2C=C[C@H](C)[C@H](CCC(O)C[C@@H](O)CC(=O)O)[C@H]21` (stereo partly shown) [lovastatin sodium] the “reduction in the concentration of lovastatin” value ([4]; HCT116 cells, 2.8 μM with 7 μM itraconazole vs 22 μM alone) was 8 fold, the inhibition at 2.8 µM ([4]; Homo sapiens, HCT-116, HCT116 cells, 2.8 μM lovastatin sodium + 7 μM itraconazole) was 82% and the inhibition at 22 µM ([4]; Homo sapiens, HCT-116, read-out: maximal inhibition, HCT116 cells, lovastatin sodium 22 μM alone) was 58.9%.

`CC(C)N1CCN(c2ccc(OCC3COC(Cn4cncn4)(c4ccc(Cl)cc4Cl)O3)cc2)CC1` (stereo not shown) [terconazole] gave an inhibition at 19 µM ([4]; Homo sapiens, HCT-116, read-out: Percent inhibition of Alamar Blue Metabolism, atorvastatin 0 μM, terconazole 19 μM) of 38.4% and an inhibition at 38 µM ([4]; Homo sapiens, HCT-116, read-out: Percent inhibition of Alamar Blue Metabolism, atorvastatin 0 μM, terconazole 38 μM) of 94.8%.

Compound `Clc1ccc(C(Cn2ccnc2)OCc2ccsc2Cl)c(Cl)c1` (stereo not shown) [tioconazole] has an inhibition at 0.3 µM ([4]; Homo sapiens, HCT-116, read-out: Percent inhibition of Alamar Blue Metabolism, tioconazole 0.3 μM, lovastatin 0.0 μM) of 8.6%, an inhibition at 0.6 µM ([4]; Homo sapiens, HCT-116, read-out: Percent inhibition of Alamar Blue Metabolism, tioconazole 0.6 μM, lovastatin 0.0 μM) of 3.7% and an inhibition at 9 µM ([4]; Homo sapiens, HCT-116, read-out: Percent inhibition of Alamar Blue Metabolism, tioconazole 9.0 μM, lovastatin 0.0 μM) of 19.8%. For the same compound, the inhibition at 18 µM [4, 10] was 26.8% and the inhibition at 36 µM [4, 10] was 41.3%.

From patent US20060241122A1, “Combination therapy for the treatment of neoplasms” (priority 2003, published 2006)
